Molecular target: T1, Human autotaxin enzyme (Homo sapiens, UniProt Q13822)
T1 construct: purchased R&D System
Experiment: Evaluation of autotaxin inhibitor, Method C (18:0 Lyso PC substrate, choline assay, Resorufin fluorescence)
Type: biochemical
Conditions: Method C (Test Example 3), read-out: Inhibitory activity (enzyme inhibitory activity, IC50)
Experimental: Test Example 3 (Method C) Evaluation of Autotaxin Inhibitor
Solution B containing 100 mM Tris-HCl buffer (pH7.5), 150 mM NaCl, 5 mM MgCl2, and 0.05% Triton X-100 was prepared. Human autotaxin enzyme (purchased from R&D System) was diluted with Solution B, and 2.5 μl of which was added to a solution of test compound in DMSO. Furthermore, 2.5 μl of 200 μM 18:0 Lyso PC (purchased from Avanti Polar Lipids) in Solution B was added and allowed to react at room temperature for 2 hours. After completion of the reaction, 15 μl of the coline assay reagent (100 mM Tris-HCl buffer (pH7.5), 5 mM MgCl2, 77 μg/ml coline oxidase, 10 μg/ml peroxydase, 25 μM 10-acetyl-3,7-dihydroxyphenoxazine, and excess autotaxin inhibitor) was added and allowed to react at room temperature for 20 minutes. The fluorescent dye Resorufin, which was produced by the reaction, was detected. The fluorescence was detected using ViewLux (PerkinElmer, Inc.) with a excitation wavelength of 531 nm and a fluorescence wavelength of 598 nm.
The percent inhibition of the test compound was calculated by assuming the sample with no test compound as 0% inhibition and the sample with no enzyme as 100% inhibition, and the percent inhibitions at different concentrations of the test compound were plotted to obtain a concentration-dependent curve.

Compound | IC50 [nM]
CCCCCC1CN(CC(=O)Nc2ccccn2)C(=O)c2cc(-c3ccc(Cl)cc3)nn21 (centres unmarked) [Compound I-0073] | ≥ 1000
CCCCCC1CN(CC(=O)N2CCC(C(N)=O)CC2)C(=O)c2cc(-c3ccc(Cl)cc3)nn21 (centres unmarked) [Compound I-0033] | ≥ 1000
CCOC(=O)CN1CC(Cc2ccccc2)n2nc(-c3ccc(Cl)cc3)cc2C1=O (centres unmarked) [Compound I-0025] | 100 to 1000
CCCCCC1CN(c2ccncc2)C(=O)c2cc(-c3ccc(Cl)cc3)nn21 (centres unmarked) [Compound I-0200] | ≥ 1000
CCCCCC1CN(CC(=O)N2CCCC2CCCc2ccccc2)C(=O)c2cc(-c3ccc(Cl)cc3)nn21 (centres unmarked) [Compound I-0078] | ≥ 1000
CCCCCC1CN(CCO)C(=O)c2cc(-c3ccc(Cl)cc3)nn21 (centres unmarked) [Compound I-0006] | 100 to 1000
C[C@H]1CN(Cc2ccccc2)C(=O)c2cc(-c3ccc(Cl)cc3)nn21 [Compound I-0172] | ≥ 1000
CCCCC1CN(CC(=O)N2CCC[C@@H](C)C2)C(=O)c2cc(-c3ccc(Cl)cc3)nn21 (some centres unmarked) [Compound I-0248] | 100 to 1000
C[C@H]1CN(Cc2ccc(C#N)cc2)C(=O)c2cc(-c3ccc(Cl)cc3F)nn21 [Compound I-0327] | ≥ 1000
CCCCCC1CN(CC(=O)N2CCCC(C)C2)C(=O)c2cc(-c3ccc(Cl)cc3)nn21 (centres unmarked) [Compound I-0115] | 100 to 1000
CCCCCC1CN(Cc2ccc(CO)cc2)C(=O)c2cc(-c3ccc(Cl)cc3)nn21 (centres unmarked) [Compound I-0145] | 100 to 1000
CCCCC1CN(CC(=O)NCC(C)(C)O)C(=O)c2cc(-c3ccc(Cl)cc3)nn21 (centres unmarked) [Compound I-0229] | 100 to 1000
CCCCCC1CN(CC(=O)N2CCCC2c2ccccc2)C(=O)c2cc(-c3ccc(Cl)cc3)nn21 (centres unmarked) [Compound I-0107] | 100 to 1000
CCCCC1CN(CC(=O)NCC(=O)NC)C(=O)c2cc(-c3ccc(Cl)cc3)nn21 (centres unmarked) [Compound I-0224] | 100 to 1000
C[C@H]1CN(CC(=O)N(C)CCC#N)C(=O)c2cc(-c3ccc(C#N)cc3NC(=O)CO)nn21 [Compound I-0360] | 100 to 1000
CCCCCC1CN(CC(=O)N2CCC(O)C2)C(=O)c2cc(-c3ccc(Cl)cc3)nn21 (centres unmarked) [Compound I-0035] | 100 to 1000
CCCCCC1CN(Cc2ccc(OCCCN(C)C)cc2)C(=O)c2cc(-c3ccc(Cl)cc3)nn21 (centres unmarked) [Compound I-0134] | ≥ 1000
CC(C)OCC1CN(Cc2ccc(C#N)cc2)C(=O)c2cc(-c3ccc(Cl)cc3)nn21 (centres unmarked) [Compound I-0193] | 100 to 1000
CCCCC1CN(Cc2ncn(C)n2)C(=O)c2cc(-c3ccc(Cl)cc3)nn21 (centres unmarked) [Compound I-0259] | 100 to 1000
C[C@H]1CN(CC(=O)N2CCCC(C(=O)O)C2)C(=O)c2cc(-c3ccc(Cl)cc3)nn21 (some centres unmarked) [Compound I-0159] | ≥ 1000
C[C@H]1CN(Cc2ccc(C#N)cc2)C(=O)c2cc(-c3c(N)cc(Cl)cc3CO)nn21 [Compound I-0346] | 100 to 1000
CCCCCC1CN(Cc2ccc(C#N)cc2)C(=O)c2cc(C(=O)N3CCC(C#N)CC3)nn21 (centres unmarked) [Compound I-0180] | ≥ 1000

Compound | IC50 [nM]
CCOC(=O)CN1C[C@@H](C)n2nc(-c3ccc(Cl)cc3)cc2C1=O [Compound I-0020] | ≥ 1000
CCCCCC1CN(CC(=O)Nc2ccccc2C(=O)O)C(=O)c2cc(-c3ccc(Cl)cc3)nn21 (centres unmarked) [Compound I-0042] | 100 to 1000
CCCCC1CN(Cc2ccc(C#N)cc2)C(=O)c2cc(N3CCC(C(F)(F)F)CC3)nn21 (centres unmarked) [Compound I-0305] | 100 to 1000
CCCCC1CN(CCn2cccc2)C(=O)c2cc(-c3ccc(Cl)cc3)nn21 (centres unmarked) [Compound I-0267] | 100 to 1000
CCCCCC1CN(CC(=O)NC[C@H]2CC[C@H](C(=O)O)CC2)C(=O)c2cc(-c3ccc(Cl)cc3)nn21 (some centres unmarked) [Compound I-0054] | 100 to 1000
COCc1cc(Cl)ccc1-c1cc2n(n1)[C@@H](C)CN(Cc1ccc(C#N)cc1)C2=O [Compound I-0329] | ≥ 1000
CC(=O)Nc1cc(Cl)ccc1-c1cc2n(n1)[C@@H](C)CN(C[C@@H]1CNC(=O)O1)C2=O [Compound I-0317] | 100 to 1000
CCCCCC1CN(CC(=O)N2CCCCC2Cc2ccccc2)C(=O)c2cc(-c3ccc(Cl)cc3)nn21 (centres unmarked) [Compound I-0030] | ≥ 1000
CCCCNC(=O)CN1C[C@H](C)n2nc(-c3ccc(Cl)cc3)cc2C1=O [Compound I-0153] | ≥ 1000
CCCCCC1CN(CC(=O)N2CCC(CO)CC2)C(=O)c2cc(-c3ccc(Cl)cc3)nn21 (centres unmarked) [Compound I-0096] | 100 to 1000
CCCCCC1CN(CC(=O)N(C)CC)C(=O)c2cc(-c3ccc(Cl)cc3)nn21 (centres unmarked) [Compound I-0077] | 100 to 1000
CCOC(=O)CN1C[C@H](c2ccccc2)n2nc(-c3ccc(Cl)cc3)cc2C1=O [Compound I-0021] | ≥ 1000
O=C(O)C1CCN(C(=O)CN2C(=O)c3cc(-c4ccc(Cl)cc4)nn3[C@H]3CCC[C@H]32)CC1 [Compound I-0012] | 100 to 1000
N#Cc1ccc(CN2CC(CC(F)(F)F)n3nc(-c4c(C#N)cc(Cl)cc4CO)cc3C2=O)cc1 (centres unmarked) [Compound I-0371] | 100 to 1000
CCCCC1CN(CC(=O)N2CCC[C@H]2C)C(=O)c2cc(-c3ccc(Cl)cc3)nn21 (some centres unmarked) [Compound I-0227] | 100 to 1000
CCCCC1CN(CCNC(=O)OC(C)(C)C)C(=O)c2cc(-c3ccc(Cl)cc3)nn21 (centres unmarked) [Compound I-0265] | 10 to 100
CC(C)Nc1cc(Cl)ccc1-c1cc2n(n1)[C@@H](C)CN(Cc1ccc(C#N)cc1)C2=O [Compound I-0349] | 100 to 1000
CCOC(=O)CN1CC(CC)n2nc(-c3ccc(Cl)cc3)cc2C1=O (centres unmarked) [Compound I-0017] | ≥ 1000
C[C@H]1CN(Cc2ccc(C#N)cc2)C(=O)c2cc(-c3ccc(Cl)cc3Br)nn21 [Compound I-0326] | ≥ 1000
CCCCCC1CN(CC(=O)OCC)C(=O)c2cc(-c3ccc(Cl)cc3)nn21 (centres unmarked) [Compound I-0002] | 10 to 100
CC(=O)Nc1cc(C#N)cc(CO)c1-c1cc2n(n1)[C@@H](C)CN(Cc1ccc(C#N)cc1)C2=O [Compound I-0348] | 10 to 100

The next lines start with the values.

IC50 [nM] | Compound
10 to 100 | CCCCC1CN(CC2CCOC2)C(=O)c2cc(-c3ccc(Cl)cc3)nn21 (centres unmarked) [Compound I-0269]
10 to 100 | CCCCC1CN(CC2CNC(=O)O2)C(=O)c2cc(-c3ccc(Cl)cc3)nn21 (centres unmarked) [Compound I-0266]
< 10 | CCCCCC1CN(CC(=O)N2CCCCC2CC(=O)O)C(=O)c2cc(-c3ccc(Cl)cc3)nn21 (centres unmarked) [Compound I-0068]
10 to 100 | CCCCCC1CN(CNC(C)=O)C(=O)c2cc(-c3ccc(Cl)cc3)nn21 (centres unmarked) [Compound I-0008]
< 10 | N#Cc1ccc(CN2CC3CCCCCC(=O)Nc4cc(Cl)ccc4-c4cc(n3n4)C2=O)cc1 (centres unmarked) [Compound I-0355]
10 to 100 | CC(=O)Nc1cc(Cl)ccc1-c1cc2n(n1)[C@@H](C)CN(C[C@H]1CNC(=O)O1)C2=O [Compound I-0316]
10 to 100 | CCCCC1CN(CNC(C)=O)C(=O)c2cc(-c3ccc(Cl)cc3)nn21 (centres unmarked) [Compound I-0151]
< 10 | N#Cc1ccc(CN2CC3CC/C=C/CC(=O)Nc4cc(Cl)ccc4-c4cc(n3n4)C2=O)cc1 (centres unmarked) [Compound I-0357]
10 to 100 | CCCCCC1CN(CC(=O)Nc2cccc(CC(=O)O)c2)C(=O)c2cc(-c3ccc(Cl)cc3)nn21 (centres unmarked) [Compound I-0056]
10 to 100 | CCCCC[C@@H]1CN(CC(=O)N2CCC(C(=O)O)CC2)C(=O)c2cc(-c3ccc(Cl)cc3)nn21 [Compound I-0312]
10 to 100 | CC(=O)NC[C@@H](O)CN1C[C@H](C)n2nc(-c3ccc(OC(F)(F)F)cc3NC(C)=O)cc2C1=O [Compound I-0340]
10 to 100 | CCCCCC1CN(Cc2cc(C)cc(C(=O)O)c2)C(=O)c2cc(-c3ccc(Cl)cc3)nn21 (centres unmarked) [Compound I-0122]
< 10 | CCCCC1CN(Cc2cccc(C(=O)O)c2)C(=O)c2cc(-c3ccc(Cl)cc3)nn21 (centres unmarked) [Compound I-0150]
10 to 100 | CCCCC1CN(CNC(=O)CC#N)C(=O)c2cc(-c3ccc(Cl)cc3)nn21 (centres unmarked) [Compound I-0289]
10 to 100 | CCCCC1CN(Cc2ccc(C#N)cc2)C(=O)c2cc(-c3ccc(Cl)cc3CO)nn21 (centres unmarked) [Compound I-0207]
< 10 | CCCCCC1CN(CC(=O)N2CCCCC2C(=O)O)C(=O)c2cc(-c3ccc(Cl)cc3)nn21 (centres unmarked) [Compound I-0052]
10 to 100 | CCCC(=O)Nc1cc(Cl)ccc1-c1cc2n(n1)[C@@H](C)CN(Cc1ccc(C#N)cc1)C2=O [Compound I-0321]
10 to 100 | CCCCC1CN(CC(=O)N(CC)CCC#N)C(=O)c2cc(-c3ccc(Cl)cc3)nn21 (centres unmarked) [Compound I-0214]
10 to 100 | CCCCCC1CN(CC(=O)Nc2cccc(C(=O)O)c2)C(=O)c2cc(-c3ccc(Cl)cc3)nn21 (centres unmarked) [Compound I-0049]
10 to 100 | CC(=O)Nc1cc(C#N)ccc1-c1cc2n(n1)[C@@H](C)CN(C[C@H]1CNC(=O)O1)C2=O [Compound I-0338]
10 to 100 | CCCCC1CN(CC(=O)NCC#N)C(=O)c2cc(-c3ccc(Cl)cc3)nn21 (centres unmarked) [Compound I-0213]
< 10 | CC(=O)Nc1cc(OC(F)(F)F)ccc1-c1cc2n(n1)[C@@H](C)CN(C[C@H]1CNC(=O)O1)C2=O [Compound I-0339]
10 to 100 | CCCCCC1CN(CC(=O)N2CCC[C@H](C)C2)C(=O)c2cc(-c3ccc(Cl)cc3)nn21 (some centres unmarked) [Compound I-0080]
10 to 100 | CCCCC1CN(Cc2cccnc2)C(=O)c2cc(-c3ccc(Cl)cc3)nn21 (centres unmarked) [Compound I-0255]
< 10 | CC(=O)Nc1cc(C#N)ccc1-c1cc2n(n1)[C@@H](C)CN(Cc1cccc(C(=O)O)c1)C2=O [Compound I-0344]

Reference: US10189843B2, “Fused pyrazole derivative having autotaxin inhibitory activity” (The University of Tokyo, priority 2014, dated 2019)
